Reference: a melting point compilation (Tetko et al.; mined from patent text by program, amines drawn as free bases though some values may be those of a salt)

melting point [°C] | Compound
192 to 194 | Brc1ccc2nc(-c3ccccc3)cn2c1
92 to 93 | CC(=O)OCc1nc([N+](=O)[O-])c(C#N)n1C
300 | CCOC(=O)c1c[nH]c2cnc3cc(F)c(F)cc3c2c1=O
142 to 146 | COc1ccc(-c2cc(=S)n(Cc3cc(OC)c(OC)c(OC)c3)nc2-c2ccc(OC)cc2)cc1
173 to 176 | CC(C)=Nn1c(C(F)(F)F)cc(=O)n(-c2cc(Oc3ccccc3[N+](=O)[O-])c(Cl)cc2F)c1=O
197 to 198 | CCOC(=O)c1cnn(-c2cccc(S(=O)(=O)N(C)C)n2)c1N
158 to 159 | COCCOCCOCCOCCNS(=O)(=O)c1ccc(NC=C2C(=O)Nc3ccc4ncsc4c32)cc1
160 to 161 | O=C1Cc2cc(F)ccc2C(c2ccc(Cl)cc2)N1 (configuration not stated)
46 to 48 | C=C1c2ccccc2-c2ccccc21
176 to 177 | Cc1nc2c(c3c1[nH]c1ccccc13)C(=O)CC(C)(C)C2
116 to 119 | Cc1c(SCCCN2CCN(Cc3ccc(Cl)s3)CC2)ccnc1CSc1nc2cc(F)ccc2[nH]1
150 to 151 | Cc1cn(NCc2cc(C(C)(C)C)c(O)c(C(C)(C)C)c2)cn1
97 to 98 | CCN1CC([N+](=O)[O-])=C(N(C)C)N(Cc2cccnc2)C1
164 to 166 | Cc1ccc(CNC(=O)c2nc(N3CCOCC3)n(C)c(=O)c2O)cc1C
103 to 106 | C#CC[C@H](c1nc2cc(Cl)ccc2c(=O)n1Nc1ccccc1)N(CCCN)C(=O)c1cc2ccccc2s1
116 to 118 | CSC(=NC(=O)N(C)C)NC(=O)N(C)C
118 | Clc1ccc(C2(Cn3ccnc3)OCC(CCc3ccccc3)O2)c(Cl)c1 (configuration not stated)
65 to 67 | Cc1ccc2c(c1)C(=O)C(=O)N2CCN(C(C)C)C(C)C
141 to 143 | COC(=O)C1CCc2c(noc2-c2ccc(Cl)cc2)C1 (configuration not stated)
88 to 89 | COC(=O)c1ccc(OCC(O)CNC(C)(C)C)cc1 (configuration not stated)
67 to 69 | CCOC(=O)Cc1cc2ccc(Br)cc2[nH]1
165 to 166 | N#CC(C#N)=Cc1ccc(OS(=O)(=O)c2cc(Cl)c(Cl)cc2Cl)cc1
98 | CCC(C)(C)NC(=O)n1nc(C)n(NC)c1=O
120 to 122 | CSc1ccc2c(C3CCN(C(C)=O)CC3)nn(-c3ccccc3)c2c1
82 to 84 | CCOC(=O)C(Cl)=Cc1cc(NC(=O)CC(C)CC(=O)O)ccc1Cl (configuration not stated)
177 | CNc1nn2cc(-c3ccccc3)nc2s1

melting point [°C] | Compound
189 to 191 | O=S1(=O)NCN(C2CC2)c2cccc(Br)c21
120 to 121 | COc1ccc2[nH]cc(CCNC=O)c2c1Cl
139 to 141 | CCOC(=O)C1Cc2c([nH]c3ccccc23)CN1C(=S)SC (configuration not stated)
> 300 | Cc1ccc2c(=O)n3nc(C)cc3[nH]c2n1
240 to 242 | Cc1c(F)c(N2CCNCC2)c(F)c2c1c(=O)c(C(=O)O)cn2-c1ccc(F)cc1F
285 to 287 | CCCCc1oc2ccccc2c1-c1ncc(-c2ccc3cc(OCc4ccc(C(=O)O)cc4C(=O)O)ccc3c2)o1
167 to 170 | Cc1cc2cc(CN3CCCC3)cnc2cc1NC(=O)c1ccc(-c2ccccc2)c(F)c1
176 to 178 | CCOC(=O)C1(S(=O)(=O)c2ccc(OC)cc2)CCN(Cc2ccc(-c3ccccc3)cc2)CC1
159 to 160 | COc1nc(C)cnc1NS(=O)(=O)c1cccnc1-c1ccc(CC(C)(C)C)cc1
239 to 241 | Cc1ccc2nc(-c3cccc(C(=O)O)c3)oc2c1
65 to 66 | CC(C)[C@@H]1CC[C@@H](C)C[C@H]1OCC(=O)N(C)CCO
> 260 | Cc1[nH]c(=O)c(-c2csc(-c3ccnc(NCC4CC4)c3)n2)cc1C(=O)NCC1CC1
168 to 169 | Nc1nc(-c2cc(-c3c(F)cccc3Cl)no2)cs1
145 to 147 | CCn1c(C)nc(N2CCc3ccccc3CC2)c([N+](=O)[O-])c1=O
207 to 209 | O=C1Cc2cc3c(cc2C(c2ccccc2Cl)N1)OCO3 (configuration not stated)
56 to 57 | CCCCOC1C=CC(=O)N1S(=O)(=O)c1cccs1 (configuration not stated)
148 to 150 | O=C(c1ccc2nonc2c1)N1CCOCC1
147 to 150 | CCc1oc2ccc(C)cc2c1C(=O)c1ccc(Cl)c(S(N)(=O)=O)c1
121 to 123 | CCCCn1nc(CCc2ccccc2)nc1Cc1ccc(-c2ccccc2-c2nnn[nH]2)nc1
241 to 242 | CN(C)C(=O)/C=C/c1cnc2c(NC(=O)c3c(Cl)cccc3Cl)cccc2c1
72 to 75 | C#CCOc1cc(N2C(=O)C3CCCCN3C2C(=O)OCC)c(F)cc1Cl (configuration not stated)
279 to 280 | Cc1c(C(=O)O)oc2cc(O)c(Cl)cc12
227 to 229 | Nc1ncnc2c1nc(OC(=O)c1ccccc1)n2Cc1ccccc1
93 | C=CS(=O)CCNC(=O)CCS(=O)(=O)C=C (configuration not stated)
256 | CN1CCN(C(=O)C(=O)Nc2cc(C#N)ccc2O)CC1
126 to 128 | COC(=O)C1=C(C)NC(c2c(F)cccc2F)=NC1c1ccc(F)cc1Cl (configuration not stated)

melting point [°C] | Compound
117 to 121 | COc1ccc(CN(C(=O)Nc2ccc(C(=O)O)cc2)c2ccc3c(c2)C(C)(C)CCC3(C)C)cc1
173 to 175 | CCn1ccc(Nc2cc(Cl)nn(C)c2=O)n1
176 to 178 | O=C(O)c1cc(S(=O)(=O)N2CCC(Br)C(Br)C2)ccc1Cl (configuration not stated)
286 to 290 | O=C(O)c1[nH]c2cc(Cl)cc(Cl)c2c1NCS(=O)(=O)c1ccccc1
175 to 177 | COc1cc2c(cc1OC)C(=O)C(CN1CCC(O)(c3ccccc3)CC1)CC2 (configuration not stated)
129 | CO[C@@H]1[C@@H](OC)[C@H](C)O[C@@H](OC(=S)Nc2ccc(-c3nccn3-c3ccc(OC(F)(F)F)cc3)cc2)[C@@H]1OC
96 to 99 | O=Cc1cccn2cc(-c3ccccc3)nc12
170 | CC(C)(C)OC(=O)NC1C(=O)N2C(C(=O)OCc3ccc([N+](=O)[O-])cc3)=C(S)SCC12 (mixture of isomers)
124 to 126 | CN(C(=O)C(F)(F)F)C(C(=O)O)c1ccccc1 (configuration not stated)
128 to 129 | COC(=O)c1ccc2c(c1)C(=O)c1ccccc1CO2
226 to 227 | CC1(C)Oc2ccc(C#N)cc2[C@@H](NC(=O)Nc2ccccc2)[C@@H]1O (relative stereo)
117 to 118 | Cc1oc(-c2ccccc2)nc1COc1cccc(COc2ccccc2CC(=O)O)c1
172 to 174 | COc1ccc(C(=O)OCCOC(=O)NC2(C(=O)O)CC2)cc1OC
145 | O=C(c1c(F)cccc1F)n1c(-c2c(F)cccc2F)nc2ccccc21
174 to 176 | C#Cc1c(N)nc(-c2ccc(Cl)c(OC)c2F)nc1C(=O)OC
122 to 124 | COc1cc2c(C)csc2c(Cl)c1Cl
218 to 220 | Cc1nc(-n2ccc(OCC3CC3)cc2=O)sc1C(=O)NCc1ccccc1
89 | O=C1NC(=O)C2CCCC12 (configuration not stated)
118 to 119 | CCN(c1ccc([N+](=O)[O-])cc1Cl)S(=O)(=O)c1ccc(C)cc1
118 to 120 | CS(=O)(=O)Nc1cc(C(c2cc(F)ccc2F)S(=O)(=O)c2ccc(F)c(F)c2)c(Cl)cn1 (configuration not stated)
197 to 198 | O=C(O)C1=Cc2cc(-c3ccccc3)ccc2OC1C(F)(F)F (configuration not stated)
168 to 169 | CCOC(=O)C(=O)NNc1ccc(NC(=S)NC)cc1
146 to 148 | CC(N)=NC(=Nc1ccccc1)N1CCOCC1
78 to 80 | CC(c1ccc(C(F)(F)F)nc1)S(C)=NC#N (configuration not stated)
228 to 230 | O=C1NCCn2c1cc1ccccc12
145 to 149 | OCC1=C(c2cccc3sccc23)N2CCN=C2S1

melting point [°C] | Compound
96 to 97 | CC(C)CCOc1ccc(Cl)c2c(=O)c3ccccc3sc12
117 to 120 | O=C1NC(=O)C2(c3cc(Oc4ccc(O)cc4)c(Cl)cc3F)CCCCC12 (configuration not stated)
114 to 115 | COCCCS(=O)(=O)NC(=O)CCc1ccc(OC(C)C)cc1Oc1ncc(C(F)(F)F)cc1Cl
180 to 182 | N#Cc1ccc(C(=O)[C@H]2C[C@H]2C(=O)O)cc1 (relative stereo)
42 to 44 | ClC(Cl)(Oc1ccccc1)Oc1ccccc1
123 to 125 | CCCCS(=O)(=O)NC(=O)C[C@H]1O[C@H](c2cccc(OC)c2OC)c2cc(Cl)ccc2N(CC(C)(C)CO)C1=O
96 to 97.5 | O=C1OC(Cc2ccccc2)CN1c1cccc(F)c1 (configuration not stated)
103 to 105 | CC(C)Sc1ccc(NC(=O)C2(C)CC2)cc1C(F)(F)F
51 to 54 | CCCCCCCC1CC(C(=O)O)C(=O)O1 (configuration not stated)
135 to 137 | CCC(Oc1cc(Cl)cc(Cl)c1)C(=O)NCc1ccccc1C (configuration not stated)
195 to 196 | CNC(=O)c1cc(-c2ccc(OC)cc2)nn(CC(=O)NCc2ccccn2)c1=O
343 to 345 | O=c1[nH]cnc2cccnc12
96 to 98 | O=[N+]([O-])c1ccc(Oc2ccccc2)cc1OCc1ccccc1
254 to 258 | NS(=O)(=O)c1cc(Br)c2c(c1)S(=O)(=O)NC(C1CCCCC1)N2 (configuration not stated)
128 to 130 | CCOC(=O)C(S)(C#N)C1=NC(C)Cc2cc(OC)c(OC)cc21 (configuration not stated)
146 to 148 | Cc1nnc2ccc(-c3ccccc3Cl)nn12
187 to 188 | COc1ccc(C(=O)Nc2cc(NC(=O)c3cccc(NC(C)=O)c3)ccc2C)cc1OC
205 to 206 | O=C(O)[C@@H]1CCCN1Cc1cc2cc3c(cc2c2cc(O)ccc12)OCO3
188 to 190 | CCN1c2ncc(CNc3cccc(N)c3)cc2C(=O)N(C)c2ccc(Cl)nc21
146 | C#CCN1CC(=O)Oc2cc(F)c(NN)cc21
149 to 151 | CCC1c2ccc(F)n2-c2ccc(F)cc2N1S(=O)(=O)c1ccc(O)c(C)c1 (configuration not stated)
232 to 233 | CCCNC(=O)c1nc(-c2ccccc2)c(-c2ccc(=O)[nH]n2)s1
111 to 113 | CCOC(=O)C1(C)CN(Cc2ccccc2)C(=O)C(=C2SC=CS2)C1=O (configuration not stated)

Compound | melting point [°C]
CN1CCc2ccc3cc[nH]c3c2CC1 | 150 to 153
